# Assays:
# [1] = tested on: hematopoietic stem cells CD41:GFP accumulated in the AGM; test: Zebrafish embryo test: HSC accumulated in the AGM (initiation of the metastatic process); assay type: in vivo; settings: althiazide 10 μM (FIG. 2; b187 prints 10 μl), embryos 25 hpf treated 24 h, vs DMSO
# From the text: A method for determining whether a molecule is capable of treating cancer in the pre-metastatic state has been described in international application WO 2011/007259. This method consists in isolating molecules capable of inhibiting the emergence of hematopoietic stem cells from the floor of the aorta without cell division, but by endothelial-to-hematopoietic transition. This emergence involves the loss of cell polarity of emerging cells, the loss of cellular junctions with these neighboring cells and the acquisition of migratory properties. This model is used because it mimics each stage of the epithelial-mesenchymal transition, the first stage of cancer metastasis. The endothelial-to-hematopoietic transition takes place in a region of the embryo called Aorta-Gonad-Mesonephros (AGM).
# In order to evaluate the inhibition of the endothelial-to-hematopoietic transition, transgenic CD41:GFP (green fluorescent protein) embryos are used. HSCs express GFP under the control of the CD41 promoter, which allows them to be monitored in vivo under a fluorescence microscope. The read-out is the number of hematopoietic stem cells CD41:GFP accumulated in the AGM (mimicking the initiation of the metastatic process) and/or in the CHT of the zebrafish embryo (mimicking the progression of the metastatic process). […]
# 4T1 cells = test: 4T1 cell migration test (scratch test); assay type: cell-based, mouse; settings: lowest concentration 10 nM, t=24 h, FIG. 8
# Protocol: The cell migration assays on the 4T1 cell line are carried out in vitro in 12-well plates on the 4T1 cell line. The cells are maintained in DMEM culture medium supplemented with 10% calf serum (FCS) and incubated at 37° C. and 5% CO2. The cell monolayer is injured with a 10 μ pipette tip. The medium is aspirated and replaced by a medium containing the compounds to be tested at the concentrations described. The wells are imaged using a microscope and the injured surface is repaired at the indicated times to highlight the cell anti-migratory power of the tested chemical compounds. The average of the measurements obtained is compared with the control wells: (average value of the compounds treated/average value of the controls)*100=% of the average value.
# In order to validate the anti-migratory potential of althiazide, we carry out a “scratch test” on 4T1 cells in culture according to the cell migration test protocol on the 4T1 cell line described in the Materials and Methods section. This test is used to evaluate the migratory power of a chemical compound on cells in culture. […]
# The area of the injured area is measured for each well and the percentage of migration is calculated under each condition.
# VIMENTIN = test: q-RT-PCR expression of EMT markers in MDA-MB-231 cells under hypoxia: VIMENTIN; assay type: cell-based, human; settings: althiazide 100 μM, hypoxic conditions (1% O2), vs control, FIG. 11
# Protocol: The cell cultures are carried out on human breast cancer epithelial cell lines MDA-MB-231 (HTB-26™), resulting from metastases present in a pleural effusion of a patient with a mammary adenocarcinoma. This line is used as a triple negative cancer cell model (no expression of ER-type nuclear estrogen receptors, nuclear progesterone receptors or overexpression of the oncogene encoding HER2 protein (Human Epidermal Growth factor Receptor-2).
# The cells were cultured in DMEM medium (Eurobio, Fance) supplemented with 10% fetal calf serum (FCS) (Eurobio, Fance) at 37° C., 5% CO2. The medium was changed every 3 days.
# The cells were placed in a controlled atmosphere at 1% oxygen 24 hours before the application of the different treatments.
# The expression of the mRNAs is measured by the q-RT-PCR method. The cells were seeded at the density of 500,000 cells/well in 6-well plates. After 24 hours at 37° C., 5% CO2 and 1% O2, the medium was renewed and added the various treatments. RNA was isolated using TRI Reagent® (sigma), assayed and retro-transcribed into complementary DNA using the PrimeScript RT Reagent Kit (Takara). The expression levels of the mRNA of the genes of interest were determined by quantitative PCR (LightCycler® 480 Instrument II) with the primers listed in Table 2: […]
# The results are calculated using the Delta Delta Ct (Δ ΔCt) method.
smiles,measurement,setting,value
C=CCSCC1Nc2cc(Cl)c(S(N)(=O)=O)cc2S(=O)(=O)N1 (racemic) [althiazide],number of HSC accumulated in the AGM compared with reference embryos; local migration of HSC,[1],greater
same,number of HSC accumulated in the AGM compared with reference embryos; local migration of HSC,[1]; listed as thiazide,reduction of the junction loss and the local migration of HSC
same,decrease in cell migration,4T1 cells,40%
same,change in expression of VIMENTIN,VIMENTIN,−22%

# Reference: patent publication US20230137849A1, “USE OF A COMPOUND OF THE DIURETICS CLASS FOR TREATING CANCER” (AZELEAD, priority 2017, published 2023)
